{"source": "patent US10596223B2", "about": "“JNK inhibitor molecules for treatment of various diseases” (Xigen Inflammation Ltd., priority 2011, dated 2020)", "key": {"[1]": {"system": "endotoxins-induced uveitis albino rat model", "assay": "Endotoxins induced uveitis (EIU), single intravenous injection, clinical scoring 24 hours after LPS", "assay_type": "in vivo", "parameters": "key to clinical score of ocular inflammation, mean score (mean±SEM) / clinical score of ocular inflammation, median: ocular inflammation score per eye, 0 = none to 4 = intense (+1 fibrin)", "conditions": "for clinical score of ocular inflammation, mean score (mean±SEM) / clinical score of ocular inflammation, median: 24 hours after LPS", "experimental": "FIG. 28 Clinical evaluation of administration of different amounts of the JNK inhibitor according to SEQ ID NO: 172 in albino rats after intravenous administration (endotoxins induced uveitis model). Form left to right: Vehicle, 0.015 mg/kg (i.v.) of SEQ ID NO: 172; 0.18 mg/kg (i.v.) of SEQ ID NO: 172; 1.8 mg/kg (i.v.) of SEQ ID NO: 172, 2 mg/kg (i.v.) of SEQ ID NO: 197 and 20 μg dexamethasone (administered directly by subconjunctival injection to the eye). Indicated is the clinical score (mean and the SEM).\nThe anti-inflammatory potency of the JNK inhibitor of SEQ ID NO: 172 was tested in albino rats following intravenous administration (EIU/LPS model). The aim of this study was to determine the effects of single intravenous injections of SEQ ID NO: 172 (0.015, 0.18, and 1.80 mg/kg) on the inflammatory response in an endotoxins-induced uveitis albino rat model and to compare these affects to those obtained with prior art JNK inhibitor of SEQ ID NO: 197 (2 mg/kg). As a further control served phosphate sodic dexamethasone.\nSixty (60) male Lewis rats were randomly divided into six (6) groups of ten (10) animals each. EIU was induced by footpad injection of lipopolysaccharide (LPS, 1 mg/kg). NaCl (0.9%), SEQ ID NO: 197 at 2 mg/kg and SEQ ID NO: 172 at three concentrations (1.80 mg/kg, 0.18 mg/kg and 0.015 mg/kg) were administered by intravenous injection. Phosphate sodic dexamethasone ([…]) was administered by sub-conjunctival injection in both eyes. 24 hours after LPS injection, inflammatory response was evaluated by clinical scoring.\nThe intensity of clinical ocular inflammation was scored on a scale from 0 to 4 for each eye: • Grade 0 no inflammation • Grade 1 slight iris and conjunctival vasodilation • Grade 2 moderate iris and conjunctival vasodilation with flare • Grade 3 intense iris and conjunctival vasodilation with flare • Grade 4 intense inflammatory reaction • (+1) fibrin formation and seclusion of pupils"}, "[2]": {"system": "established type II collagen arthritis in rats", "assay_type": "in vivo, rat", "source_text": "Rat collagen arthritis is an experimental model of polyarthritis that has been widely used for preclinical testing of numerous anti-arthritic agents that are either under preclinical or clinical investigation or are currently used as therapeutics in this disease. The hallmarks of this model are reliable onset and progression of robust, easily measurable polyarticular inflammation, marked cartilage destruction in association with pannus formation, and mild to moderate bone resorption and periosteal bone proliferation.\nIntravenous (IV) efficacy of the JNK inhibitor of SEQ ID NO: 172 administered daily (QD) for 14 days (arthritis d1-14) for inhibition of the inflammation (paw swelling), cartilage destruction, and bone resorption that occurs in established type II collagen arthritis in rats was determined in said experimental model. […]\nFemale Lewis rats with established type II collagen arthritis were treated daily (QD) on arthritis days 1-14 by the intravenous (IV) route with vehicle (NaCl), SEQ ID NO: 172 (0.01, 0.1, 1, or 5 mg/kg), or the reference compound dexamethasone (Dex, 0.05 mg/kg). […] Efficacy evaluation was based on animal body weights, daily ankle caliper measurements, ankle diameter expressed as area under the curve (AUC), terminal hind paw weights, and histopathologic evaluation of ankles and knees of selected groups. […]"}}, "note": "Square brackets hold non-standard residues; d marks the D form. Peptide text beside a SMILES is read from it."}
{"smiles": "CC(C)C[C@H](NC(=O)[C@H](CC(N)=O)NC(=O)[C@H](CC(C)C)NC(=O)[C@@H](NC(=O)[C@@H](C)NC(=O)[C@@H]1CCCN1C(=O)[C@H](CCCNC(=N)N)NC(=O)[C@@H](CCCCN)NC(=O)[C@@H]1CCCN1C(=O)[C@H](CCCNC(=N)N)NC(=O)[C@@H](CCCNC(=N)N)NC(=O)[C@H](CCCNC(=N)N)NC(=O)[C@H](CCCNC(=N)N)NC(=O)[C@H](CCC(N)=O)NC(=O)[C@@H](CCCNC(=N)N)NC(=O)[C@H](CCCNC(=N)N)NC(=O)[C@H](CCCCN)NC(=O)[C@H](CCCCN)NC(=O)[C@H](N)CCCNC(=N)N)[C@@H](C)O)C(=O)N[C@H](Cc1ccccc1)C(N)=O", "note": "[SEQ ID NO: 172, rKKRrQRRrRPkRPaTLNLf] (H-[dR]KKR[dR]QRR[dR]RP[dK]RP[dA]TLNL[dF]-NH2; N-terminus assumed)", "values": [{"measurement": "clinical score of ocular inflammation, mean score (mean±SEM)", "setting": "[1]; 0.015 mg/kg intravenous", "result": "2.3±0.3"}, {"measurement": "clinical score of ocular inflammation, median", "setting": "[1]; 0.015 mg/kg intravenous", "result": 2}, {"measurement": "clinical score of ocular inflammation, mean score (mean±SEM)", "setting": "[1]; 0.18 mg/kg intravenous", "result": "2.4±0.3"}, {"measurement": "clinical score of ocular inflammation, median", "setting": "[1]; 0.18 mg/kg intravenous", "result": 2}, {"measurement": "clinical score of ocular inflammation, mean score (mean±SEM)", "setting": "[1]; 1.80 mg/kg intravenous", "result": "2.1±0.3"}, {"measurement": "clinical score of ocular inflammation, median", "setting": "[1]; 1.80 mg/kg intravenous", "result": 2}, {"measurement": "endotoxin-induced inflammation in the anterior chamber (conclusion)", "setting": "[1]; single intravenous injection, SEQ ID NO: 197 at 2 mg/kg, SEQ ID NO: 172 at 0.015, 0.18, 1.80 mg/kg", "result": "also reduced the endotoxin-induced inflammation"}, {"measurement": "clinical and histopathology parameters (conclusion)", "setting": "[2]; 5 mg/kg IV QD 14 days", "result": "significant beneficial effect on the clinical and histopathology parameters"}, {"measurement": "daily ankle diameter measurements vs disease controls", "setting": "[2]; 5 mg/kg IV QD, p<0.05 days 4-12", "result": "reduced toward normal"}]}
